SMILES strings stand for the structures. Some results are limits rather than exact numbers.

One data set relates to vaginal epithelium. Put plainly: Cervical smear: maturity index / karyopyknosis index of the vaginal epithelium, clinical phase I-II study. The settings on record: for Change in maturity index for superficial cells (MI3 mean) / Change in maturity index for parabasal cells (MI1 mean): after 3 months; for Change in maturity index for superficial cells (MI3 mean): index 100 full estrogen, index 0 no estrogenicity; for Change in maturity index for parabasal cells (MI1 mean): index 100 no estrogenicity, index 0 full estrogen; for increase in the karyopyknosis index for superficial cells: 12 weeks; for change from baseline to post-treatment in the karyopyknosis index for superficial cells: individuals, start to 12 weeks, ospemifene 30, 60, 90 mg daily, raloxifene 60 mg daily, result in words. The procedure: Tolerability and pharmacokinetics were also assessed. Raloxifene (60 mg daily) was used as reference. Ospemifene was given perorally at the doses of 30, 60 and 90 mg daily. There were 29 volunteers at each dose level, as well as in the raloxifene group. Ospemifene was administered in gelatine capsules containing either 30, 60 or 90 mg of ospemifene. […] The vaginal epithelium was assessed by karyopyknosis index which is a well known assessment method among the skilled persons. In this method, the vaginal fraction of the cervical smears is estimated as the percentage of the number of cells from different layers: the parabasal cell layer; the intermediate cell layer; and the superficial cell layer. Estrogenicity is seen by a shift towards superficial cell fraction. In postmenopausal women this fraction usually is close to zero and estradiol treatment increases the fraction close to 100. Samples were taken before and after the treatment (at 3 months).
Table 1. […] (MI 1: index 100 no estrogenicity; index 0 full estrogen, and MI 3: index 100 full estrogen; index 0 no estrogenicity).

A short description of data set [1]: Tolerability in the clinical studies. In kind it is in vivo, posmenopausal women. The procedure:
(§1) A clinical phase I-II study was carried out to study the effects of ospemifene on endometrial thickness, endometrial pathology, (biopsy taken by curettage as described by Vuopala et al, 1982) and cervical smear in healthy postmenopausal female volunteers in the age range 55 to 69 years. Tolerability and pharmacokinetics were also assessed. Raloxifene (60 mg daily) was used as reference. Ospemifene was given perorally at the doses of 30, 60 and 90 mg daily. […] Ospemifene was administered in gelatine capsules containing either 30, 60 or 90 mg of ospemifene.
Based on the present data, the optimal clinical dose is expected to be higher than 25 mg daily and lower than 100 mg daily. A particularly preferable daily dose is found in the range 30 to 90 mg. […] In addition, ospemifene decreases total and LDL cholesterol, increases HDL cholesterol, and prevents osteoporosis and early stage breast cancer.

For data set [2], the system named is endometrium. The data set can be described thus: Thickness of the endometrium by ultrasonography, clinical phase I-II study. The settings on record: for increase in the thickness of the endometrium (average): 3 months, statistically not significant. It counts as in vivo, healthy postmenopausal female volunteers. As to the method: as §1
(§2) This effect is clearly weaker than that seen with estrogen replacement therapy. […] The measured values were always smaller than 8 mm, which is considered to be a thickness which is indicative for a physiologically significant estrogenicity of SERMs like tamoxifen (Hann et al, 1997; Lahti et al, 1993).

The test system of data set [3] is endometrium. The data set can be described thus: Endometrial histology (biopsy taken by curettage), clinical phase I-II study. The settings on record: 30, 60, 90 mg daily, 3 months. It counts as in vivo, healthy postmenopausal female volunteers. As to the method:
as §1, §2

Description for urogenital atrophy: In this study, raloxifene (60 mg/day) or ospemifene at different doses were given to elderly female volunteers for a period of 3 months.
77 were treated with 25-30 mg, 78 with 50-60 mg, 78 with 90-100 mg and 8 with 200 mg daily dose of ospemifene. In the control groups, 47 were treated with placebo and 29 with raloxifene. […] The symptoms include both vaginal and urinary symptoms such as vaginal discomfort with irritation, itching, burning, smarting, postcoital bleeding, vulvar itching and/or malodorous discharge and leukorrhea.

`OCCOc1ccc(/C(=C(/CCCl)c2ccccc2)c2ccccc2)cc1` [Ospemifene, (deaminohydroxy)toremifene]: the “Change in maturity index for superficial cells (MI3 mean)” value in the data set on vaginal epithelium (30 mg daily perorally) is recorded as “+12.4”; in the data set on vaginal epithelium (60 mg daily perorally), “+5.5”; in the data set with vaginal epithelium (90 mg daily perorally), “+12.5”. The “Change in maturity index for parabasal cells (MI1 mean)” value in the data set with vaginal epithelium (30 mg daily perorally) is -40; with vaginal epithelium (60 mg daily perorally) it was -26; in the data set on vaginal epithelium (90 mg daily perorally), -48. The “estrogenic effect in the cervical smear” value with vaginal epithelium (30, 60, 90 mg daily, 3 months) is on record as “weak but statistically significant estrogenic effect”. The “pathological changes in cervical smear samples” value in the data set with vaginal epithelium (30, 60, 90 mg daily, 3 months) was “No pathological changes”. For the same compound, the “increase in the karyopyknosis index for superficial cells” value is on record as less than 40 with vaginal epithelium (individual cases, all ospemifene groups (30, 60, 90 mg daily), all cases except one) and 45 in the data set on vaginal epithelium (one case in the 90 mg group). In addition, in the data set on vaginal epithelium, the “change from baseline to post-treatment in the karyopyknosis index for superficial cells” value is listed as “slight increases”. Also, the tolerability entry in data set [1] is recorded as “excellent tolerability”. The “increase in the thickness of the endometrium (average)” value turned out to be 0.2 mm in the data set on endometrium [2] (30 mg daily), 0.5 mm with endometrium [2] (60 mg daily) and 0.5 mm with endometrium [2] (90 mg daily). Also, the “thickness of the endometrium, measured values” in the data set with endometrium [2] (all measured values, 30, 60, 90 mg daily) is reported as “smaller than 8 mm”. For the same compound, in the data set on urogenital atrophy (30, 60 and 90 mg daily, 3 months, elderly female volunteers), the vaginal atrophy entry was “significant decrease in vaginal atrophy”. In addition, the “symptoms associated with urogenital atrophy (vaginal and urinary)” value in the data set with urogenital atrophy (spontaneous reports of some subjects, 25-200 mg daily, 241 women treated) was “alleviation of the symptoms associated with urogenital atrophy”. Besides, the “malignant findings in the endometrium” value with endometrium [3] was “no malignant findings”. Moreover, the “estrogenic effect on endometrial histology” value with endometrium [3] (clearly weaker than with estrogen replacement therapy) is on record as “weak estrogenic effect”.
For the compound `O=C(c1ccc(OCCN2CCCCC2)cc1)c1c(-c2ccc(O)cc2)sc2cc(O)ccc12` [Raloxifene, reference compound], in the data set on vaginal epithelium (60 mg daily perorally), the “Change in maturity index for superficial cells (MI3 mean)” value is listed as -0.3 and the “Change in maturity index for parabasal cells (MI1 mean)” value is -2. Further, the “change from baseline to post-treatment in the karyopyknosis index for superficial cells” value with vaginal epithelium is listed as “no one in the raloxifene group (Fig. 1D) had a significant change”.

Source of the values: EP1509215B1, “TREATMENT OR PREVENTION OF UROGENITAL ATROPHY AND ITS SYMPTOMS IN WOMEN” (Hormos Medical Ltd., priority 2002, dated 2003).
